The text below walks through data of PMC6482291, “Anticonvulsant Activity of Pterostilbene in Zebrafish and Mouse Acute Seizure Tests” (Neurochemical Research, 2019).

Like-named read-outs stand apart in the source and are kept apart here.

This data set in a line: Determination of PTE in mouse serum and brain tissue and pharmacokinetic analysis. It is filed as in vivo. The following applies: mice, 50 mg/kg ip; for Kp: brain/serum, ip, 50 mg/kg; for concentration at 15 min / concentration at 30 min / concentration at 60 min / concentration at 120 min / concentration at 240 min: mean ± SEM; for MRT: read-out: MRT (mean residence time); for half-life: read-out: t0.5 λz (terminal half-life) (converted); for Tmax: read-out: time of peak concentration following dosing (converted); for k el: read-out: λz (terminal elimination rate constant) (converted). Here is the method:
In order to isolate PTE from biological samples, brains were homogenized in distilled water (1:4, w/v) with a tissue homogenizer TH220 (Omni International, Inc., Warrenton, VA, USA). Aliquots of 0.2–0.3 ml of serum or 0.5–1 ml of brain homogenate were spiked with 10 µl of internal standard (IS) solution containing clonazepam at concentration of 10 µg/ml and vortexed (Reax top, Heidolph, Germany) for 10 s. Both serum samples and brain homogenates were extracted with 3 ml of a mixture of ethyl acetate:hexane (30:70, v/v) for 20 min on a shaker (VXR Vibrax, IKA, Germany). After centrifugation (Universal 32, Hettich, Germany) at 3000 rpm for 15 min, the organic layers ware transferred to new tubes and evaporated to dryness at 37 °C under a gentle stream of nitrogen. The residues were dissolved in 100 µl of methanol and aliquots of 10–50 µl of the solution were injected into the HPLC system. The analysis was performed on a 250 × 4.6 mm LiChrospher®100 RP-18 column with a particle size of 5 µm (Merck, Darmstadt, Germany) protected with a guard column (4 × 4 mm) with the same packing material. The mobile phase was composed of deionized water and acetonitrile mixed at a ratio of 50:50 (v/v) and pumped at a flow rate of 1 ml/min. The column temperature was maintained at 21 °C. The HPLC system (Merck-Hitachi, Darmstadt, Germany) consisted of an L-7100 isocratic pump, an L-7200 autosampler, and a UV variable-wavelength K-2600 detector (Knauer, Berlin, Germany) operating at 321 nm. D-7000 HSM software was used for data acquisition and processing. In these conditions, the retention times of IS and PTE were approximately 5.3 and 12.8 min. The calibration curve constructed by plotting the ratio of the peak area of PTE to IS vs PTE concentrations was linear in the tested concentration ranges. The limit of quantification of the analytical method was 5 ng/ml (or ng/g tissue). […] The extraction efficiencies of PTE and IS were higher than 90%.
Serum and total brain concentrations of PTE were determined in groups consisted of 8 animals. Pharmacokinetic parameters were calculated using non-compartmental analysis in Phoenix WinNonlin v. 7.0 (Pharsight Corporation, a Certara Company, Princeton, NJ, USA).

[1] abbreviates: mouse, brain, read-out: Concentration of PTE in brain tissue.
Where [2] appears, read: mouse, serum, read-out: Concentration of PTE in serum.

By Cmax is commonly meant the maximum level reached in the sampled fluid or tissue. Broadly, the MRT is the average time that molecules of a dose stay in the body. The half-life is the time in which the quantity being followed falls by half. As for `COc1cc(/C=C/c2ccc(O)cc2)cc(OC)c1` [PTE, trans-3,5-dimethoxy-4′-hydroxy-trans-stilbene], the “AUC0–24” value (brain) is 11.64 µg·h/g. The Kp (mouse, read-out: brain-to-serum AUC ratio) is 5.15. Also, the Kp (mouse, read-out: brain-to-serum Cmax ratio) amounted to 6. Also, under setting [1], the concentration at 15 min amounted to 13100 ± 1820 ng/g, the concentration at 30 min is 9920 ± 1100 ng/g, the concentration at 60 min was 3500 ± 440 ng/g and the concentration at 120 min was 820 ± 140 ng/g. Under setting [1], the concentration at 240 min was found to be 180 ± 60 ng/g. For the same compound, under setting [2], the concentration at 15 min turned out to be 1760 ± 230 ng/mL, the concentration at 30 min is 1080 ± 160 ng/mL, the concentration at 60 min stood at 550 ± 70 ng/mL and the concentration at 120 min came out at 210 ± 30 ng/mL. Also, the concentration at 240 min under setting [2] turned out to be 100 ± 60 ng/mL. For the same compound, where the note is “mouse, brain”, the Cmax was found to be 13100 ng/g, the MRT was found to be 1.09 h, the half-life is 1.82 h and the Tmax is 0.25 h. Moreover, for the setting “mouse, brain”, the k el is 0.000106 s⁻¹. Also, for the setting “mouse, serum”, the Cmax turned out to be 2190 ng/mL, the MRT was 2.62 h, the half-life is 2.64 h and the Tmax is 0.25 h. Further, the k el (mouse, serum) was 7.22e-05 s⁻¹. Besides, the AUC(0-t) (mouse, serum, read-out: AUC0–24) amounted to 2260 ng·h/mL.
